Measured values as given in US12171840B2, “Anti-mesothelin antibody and antibody drug conjugate thereof” (Remegen, Ltd., priority 2018, dated 2024).
“And” between values parts separate entries of the source, which are not always exact repeats. Identical values can stand only once. Like-named read-outs stand apart in the source and are kept apart here. Starred links: 1 amine or outer side, 2 acyl side, 3 side chain; linkers in the order of their positions; H or OH if unused. Non-standard residues stand in square brackets, D forms with d. Residues, ends and D or L forms follow the SMILES beside them. *: point of attachment. Dolaproine = CO[C@@H]([C@@H]1CCCN1)[C@@H](C)C(=O)O; Hexanoyl(6-maleimido) = O=C1C=CC(=O)N1CCCCCC(=O)*; Dil = CC[C@H](C)[C@H](NC)[C@@H](CC(=O)O)OC; PABC = O=C(OCc1ccc(N[*:1])cc1)[*:2]; Doe = c1ccc(C[C@H](N*)c2nccs2)cc1; X1 = C[C@@H](N*)[C@@H](O)c1ccccc1; Cit = NC(=O)NCCC[C@H](N)C(=O)O; NMeV = CN[C@H](C(=O)O)C(C)C

Experiments:
Oval-Citar-3-MSLN cells = assay: Cytotoxic activity (CCK-8) in Oval-Citar-3 cells with high expression of MSLN; conditions: for IC50: read-out: cytotoxicity IC50
Description: Oval-Citar-3-MSLN cells in good growth state were added to a 96-well cell culture plates (5×10^4 cells/mL. 100 μL/well), and incubated overnight at 37° C. in a CO2 incubator. […] After dilution, they were added to 96 plates (100 μL/well), and a blank group (equal volume of medium without drug) and three control groups were set, and incubation was carried out in a CO2 constant temperature incubator at 37° C. for 72 hours. A medium (without FBS) that contained 10 μL of CCK-8 at a dose of 100 μL/well was added, incubated at 37° C. for 2 to 4 hours in a CO2 incubator, and the OD values at 450 nm were read with a microplate reader. The inhibition rate was calculated by the following formula: IR %=(ODblank−ODdrug)×100/ODblank.

[1] = test system: Oval-Citar-3 human ovarian cancer bearing mouse model with high expression of MSLN; assay: Anti-tumor experiment of RC88-Py-MAA-Val-Cit-PAB-MMAE, dose groups and controls, in Oval-Citar-3-MSLN tumor-bearing nude mice (Example 6); format: in vivo
Description: Oval-Citar-3-MSLN cells (2×10^6) in normal growth state were subcutaneously inoculated in nude mice (Changzhou Cavans Laboratory Animal Co., Ltd., certificate number: 201611240, license number: SCXK (Su) 2011-0003), and the animals were randomized after the tumor volume grew to approximately 100-400 mm^3. […] 3 times in total (PTX was administered twice a week, 6 times in total), and the negative control group was administrated with the equal amount of physiological saline at the same time.

[2] = OVal-CitAR3-MSLN, 72 hours, CCK-8, N = 3
[3] = 10 mg/kg twice a week, 6 times in total, after 21 days of administration

Compound	Inhibition rate, % (maximum inhibition rate) (Oval-Citar-3-MSLN cells; [2]) [%]	cytotoxicity IC50 (Oval-Citar-3-MSLN cells; [2]) [ng/mL]	IC50 (Oval-Citar-3-MSLN cells; [2]) [pM]	T/C [1, 3] [%]	tumors completely eliminated (CR) [1, 3]	tumor volume and RTV versus the control (saline) group ([1]; 10 mg/kg twice a week, 6 times in total, after 21 days, P<0.05)	IC50 (Oval-Citar-3-MSLN cells; Homo sapiens, 72 h)	difference from the control (saline) group ([1]; 0.06 mg/kg, once a week, 3 times in total, P>0.05)
CC[C@H](C)[C@@H]([C@@H](CC(=O)N1CCC[C@H]1[C@H](OC)[C@@H](C)C(=O)N[C@@H](Cc1ccccc1)c1nccs1)OC)N(C)C(=O)[C@@H](NC(=O)[C@@H](NC)C(C)C)C(C)C [MMAD, monomethyl auristatin D] (H-[NMeV]V[Dil][Dolaproine]-Doe)	98.1 ± 2.4	0.1169 ± 0.0074	152 ± 10	–	–	–	–	–
CC(=O)O[C@H]1C(=O)[C@@]2(C)[C@H]([C@H](OC(=O)c3ccccc3)[C@]3(O)C[C@H](OC(=O)[C@H](O)[C@@H](NC(=O)c4ccccc4)c4ccccc4)C(C)=C1C3(C)C)[C@]1(OC(C)=O)CO[C@@H]1C[C@@H]2O [PTX, Paclitaxel]	92.8 ± 1.5	–	–	< 40	tumors were completely eliminated (CR) in two tumor-bearing mice	statistically different	0.00109 µg/mL and 1.27 nM	–
CC[C@H](C)[C@@H]([C@@H](CC(=O)N1CCC[C@H]1[C@H](OC)[C@@H](C)C(=O)N[C@H](C)[C@@H](O)c1ccccc1)OC)N(C)C(=O)[C@@H](NC(=O)[C@H](C(C)C)N(C)C(=O)OCc1ccc(NC(=O)[C@H](CCCNC(N)=O)NC(=O)[C@@H](NC(=O)CCCCCN2C(=O)C=CC2=O)C(C)C)cc1)C(C)C [Mc-Val-Cit-PAB-MMAE] ({Hexanoyl(6-maleimido)}-V[Cit][PABC][NMeV]V[Dil][Dolaproine]-X1)	94.5 ± 0.8	~663.4	–	–	–	–	–	–
CC[C@H](C)[C@@H]([C@@H](CC(=O)N1CCC[C@H]1[C@H](OC)[C@@H](C)C(=O)N[C@H](C)[C@@H](O)c1ccccc1)OC)N(C)C(=O)[C@@H](NC(=O)[C@@H](NC)C(C)C)C(C)C [MMAE, monomethyl auristatin E] (H-[NMeV]V[Dil][Dolaproine]-X1)	96.9 ± 0.7	0.3199 ± 0.0284	446 ± 39.5	–	–	–	–	no significant difference
